Experimental data from patent publication US8278337B2, “Substituted pyridines that are JNK inhibitors” (Merck Sharp & Dohme, priority 2006, dated 2012).
Several values for one entry are separate records, joined by “and”; a condition that tells them apart may be missing. Identical values can stand only once. Like-named read-outs stand apart in the source and are kept apart here.

Assays:
Format in all cases: biochemical
[1] = molecular target: JNK3 (Homo sapiens, UniProt P53779); experiment: DELFIA kinase assay, JNK3
Chain of JNK3 (P53779 whole entry, species assumed): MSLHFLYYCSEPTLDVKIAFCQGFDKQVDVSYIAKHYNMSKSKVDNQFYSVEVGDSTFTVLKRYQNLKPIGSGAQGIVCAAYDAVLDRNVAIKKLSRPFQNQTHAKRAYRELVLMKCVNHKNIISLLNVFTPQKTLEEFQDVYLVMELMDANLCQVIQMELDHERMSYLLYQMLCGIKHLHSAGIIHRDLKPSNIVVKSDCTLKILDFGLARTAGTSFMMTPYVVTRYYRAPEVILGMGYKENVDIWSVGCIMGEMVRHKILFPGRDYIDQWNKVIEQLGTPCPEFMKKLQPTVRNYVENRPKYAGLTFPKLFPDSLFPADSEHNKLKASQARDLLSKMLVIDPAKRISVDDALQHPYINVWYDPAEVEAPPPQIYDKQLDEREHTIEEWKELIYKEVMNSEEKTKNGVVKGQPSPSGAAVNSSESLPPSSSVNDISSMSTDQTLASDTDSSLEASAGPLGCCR
Procedure: (§1) Assay DELFIA (Dissociation Enhanced Lanthanide Fluorescence Immuno-Assay) Assay:
(§2) Before initiation of kinase reactions, compounds were pre-incubated with the enzyme for 10 minutes. Pre-incubation reactions contained 50 mM HEPES pH 7.3, 10 mM MgCl2, 1 mM DTT, 75 mM NaCl, 1 mM EDTA, 1 mM EGTA, 0.01% CHAPS, 2 nM JNK1, 6 ug/mL biotinylated GST-ATF2, 0.1 mg/ml BSA, 5% DMSO and 0-100 μM compound in a total volume of 40 μL. After a 10 minute room temperature pre-incubation, 10 μL of 35 μM ATP was added to start the reaction (final concentration of ATP=7 uM). Reactions were incubated at room temperature for 30 minutes. A small aliquot (10 uL) was taken and quenched by adding into 190 uL of DELFIA Assay buffer containing 100 mM EDTA. The amount of phosphate transferred to biotinylated GST-ATF2 was measured using the Dissociation Enhanced Lanthanide Fluorescence Immuno-assay (DELFIA) from Perkin Elmer according to manufacturers protocol. Briefly, biotinylated GST-ATF2 was captured on streptavidin coated plates for 1 hour, washed twice, then incubated for 1 hour with a 1:1000 dilution of rabbit-anti-phospho-ATF2 antibody and a 1:3500 dilution of Europium-labeled anti-rabbit secondary antibody. Free antibody was removed with six washes, Europium was dissociated from the antibody, and Europium fluorescence was measured using an excitation wavelength of 340 nm and an emission wavelength of 615 nm. JNK2 and JNK3 kinase reactions were carried out similarly, with the exception that the final concentration of ATP was 4 uM and 2 uM, respectively.

[2] = molecular target: JNK2 (Homo sapiens, UniProt P45984); experiment: DELFIA kinase assay, JNK2
Chain of JNK2 (P45984 whole entry, species assumed): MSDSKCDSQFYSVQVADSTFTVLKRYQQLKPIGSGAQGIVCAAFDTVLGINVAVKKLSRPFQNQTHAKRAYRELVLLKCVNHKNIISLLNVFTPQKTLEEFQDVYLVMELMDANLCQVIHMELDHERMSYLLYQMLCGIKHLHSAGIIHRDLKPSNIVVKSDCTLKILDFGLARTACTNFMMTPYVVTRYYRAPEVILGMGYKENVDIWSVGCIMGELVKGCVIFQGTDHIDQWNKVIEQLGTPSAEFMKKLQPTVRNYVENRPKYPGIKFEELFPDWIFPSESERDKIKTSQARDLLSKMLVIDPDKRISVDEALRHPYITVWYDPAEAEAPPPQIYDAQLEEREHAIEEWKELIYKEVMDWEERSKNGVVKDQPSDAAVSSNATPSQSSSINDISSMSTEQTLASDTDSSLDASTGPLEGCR
Procedure: as §1, §2

[3] = molecular target: JNK1 (Homo sapiens, UniProt P45983); experiment: DELFIA kinase assay, JNK1
Chain of JNK1 (P45983 whole entry, species assumed): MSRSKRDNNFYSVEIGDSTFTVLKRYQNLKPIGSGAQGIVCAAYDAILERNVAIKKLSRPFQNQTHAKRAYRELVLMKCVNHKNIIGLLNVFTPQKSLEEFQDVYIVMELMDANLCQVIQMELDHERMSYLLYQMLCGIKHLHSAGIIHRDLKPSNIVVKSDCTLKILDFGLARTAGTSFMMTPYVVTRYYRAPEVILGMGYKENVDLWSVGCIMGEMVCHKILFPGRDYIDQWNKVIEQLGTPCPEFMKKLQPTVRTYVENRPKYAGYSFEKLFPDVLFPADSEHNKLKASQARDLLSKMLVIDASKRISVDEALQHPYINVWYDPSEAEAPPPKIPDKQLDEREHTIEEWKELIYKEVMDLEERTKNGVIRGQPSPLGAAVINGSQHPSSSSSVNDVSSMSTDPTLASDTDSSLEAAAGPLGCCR
Method in brief: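 Enzyme (2 nM JNK1) was preincubated 10 min with 0–100 μM compound in HEPES pH 7.3 with 5% DMSO, then reacted 30 min at room temperature with biotinylated GST-ATF2 (6 ug/mL). Final ATP was 7 uM for JNK1, 4 uM for JNK2 and 2 uM for JNK3. Phospho-ATF2 was detected by DELFIA europium fluorescence (ex 340, em 615 nm).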

[4] = DELFIA, biotinylated GST-ATF2 substrate, final ATP 2 uM
[5] = DELFIA, biotinylated GST-ATF2 substrate, final ATP 4 uM
[6] = DELFIA, biotinylated GST-ATF2 substrate, 10 minute pre-incubation, final ATP 7 uM
[7] = DELFIA assay, 2 nM JNK1, 7 uM ATP, 10 min pre-incubation
[8] = DELFIA assay, 2 nM JNK1, 7 uM ATP, 10 min pre-incubation, second table, read-out: JNK 1 IC50

Structure (SMILES)	IC50 [1, 4] [nM]	IC50 [2, 5] [nM]	IC50 [3, 6]	IC50 ([1]; DELFIA assay) [nM]	IC50 ([2]; DELFIA assay) [nM]	IC50 [3, 7] [nM]	IC50 [3, 8] [nM]
CC(C)NC(=O)c1cccc(C(=O)NCc2cnn(-c3ccc4ncccc4c3)c2)n1 [Compound 142]	9	8	4 to 19 nM and 4 to 97 nM and 6 nM	–	–	–	–
CC(C)NC(=O)c1cccc(C(=O)NCc2cnn(-c3ccc(C#N)cc3)c2)n1 [Compound 135]	16	48	4 to 97 nM and 27 nM	–	–	–	–
CC(C)NC(=O)c1cccc(C(=O)NCc2cnn(-c3cccc(C(F)(F)F)c3)c2)n1 [Compound 140]	9	11	4 to 19 nM and 4 to 97 nM and 13 nM	–	–	–	–
Cc1nc2ccc(-n3cc(CNC(=O)c4cccc(C(=O)NC(C)C)n4)cn3)cc2n1C [Compound 233]	–	–	4 to 19 nM and 4 to 97 nM	12	11	17	17
CC(C)NC(=O)c1cccc(C(=O)NCc2cnn(-c3cccc(C#N)c3)c2)n1 [Compound 134]	–	–	4 to 19 nM and 4 to 97 nM	20	20	15	–
CC(C)NC(=O)c1cccc(C(=O)NCc2cnn(-c3ccc(S(C)(=O)=O)cc3)c2)n1 [Compound 137]	–	–	4 to 19 nM and 4 to 97 nM	12	3	13	–
CC(C)NC(=O)c1cccc(C(=O)NCc2cnn(-c3cnc4cccnc4c3)c2)n1 [Compound 222]	–	–	4 to 97 nM and 4 to 19 nM	10	8	18	18
CC(C)NC(=O)c1cccc(C(=O)NCc2cnn(-c3ccc(S(=O)(=O)N(C)C)cc3)c2)n1 [Compound 152]	9	8	4 to 19 nM and 4 to 97 nM and 11 nM	–	–	–	–
C[C@@H](CO)NC(=O)c1cccc(C(=O)NCc2ccc3nc(N)sc3c2)n1 [Compound 6]	–	–	4 to 97 nM	–	–	–	–
CC(C)NC(=O)c1cccc(C(=O)NCc2ccc3nc(NC(C)C)sc3c2)n1 [Compound 201]	–	–	4 to 97 nM	–	–	–	–
COc1ccc(-c2cccc(C(=O)NCc3ccc(S(C)(=O)=O)cc3)n2)c(F)c1 [Compound 331]	–	–	102 to 959 nM	–	–	–	–
Nc1nc2ccc(CNC(=O)c3cccc(C(=O)N4CCCCC4CO)n3)cc2s1 (stereo not drawn) [Compound 36]	–	–	> 1000 nM	–	–	–	–
CS(=O)(=O)c1ccc(CNC(=O)c2cccc(-n3ncc4ccccc43)n2)cc1 [Compound 322]	–	–	102 to 959 nM	–	–	–	–
CC(C)NC(=O)c1cccc(C(=O)NNc2ccc(S(C)(=O)=O)cc2)n1 [Compound 122]	–	–	> 1000 nM and 1030 to 10000 nM	–	–	–	–
